Results on eleven compounds are retold here after ChEMBL document CHEMBL4393657, “Tetrazole hybrids and their antifungal activities” (2019).

In brackets after ≈: the same amount, converted by molar mass.

Holding throughout (assay type): functional
For assay [1], the system named is Nakaseomyces glabratus. Put plainly: Potency index, ratio for MIC of fluconazole to MIC of compound for antifungal activity against Candida glabrata assessed as reduction in fungal cell growth incubated for 48 hrs by broth microdilution method. (Broth dilution looks for growth in wells or tubes with falling amounts of substance.)
In assay [2] the test system is Candida albicans. Nature of the assay: Antifungal activity against Candida albicans assessed as reduction in fungal cell growth incubated for 48 hrs by broth microdilution method.
Assay [3] concerns Candida tropicalis. Put plainly: Antifungal activity against Candida tropicalis assessed as reduction in fungal cell growth incubated for 48 hrs by broth microdilution method.
Assay [4] relates to Aspergillus niger. Put plainly: Potency index, ratio for MIC of fluconazole to MIC of compound for antifungal activity against Aspergillus niger.
Assay [5] concerns Aspergillus niger. Put plainly: Antifungal activity against Aspergillus niger assessed as reduction in fungal cell growth incubated for 72 hrs by broth microdilution method.
For assay [6], the system named is Cryptococcus neoformans. Put plainly: Potency index, ratio for MIC of fluconazole to MIC of compound for antifungal activity against Cryptococcus neoformans LA314 assessed as reduction in fungal cell growth incubated for 48 hrs by broth microdilution method.
The subject of assay [7] is Candida albicans. Nature of the assay: Potency index, ratio for MIC of fluconazole to MIC of compound for antifungal activity against Candida albicans V-01-191A-261 assessed as reduction in fungal cell growth incubated for 48 hrs by broth microdilution method.
Assay [8] concerns Candida tropicalis. Nature of the assay: Potency index, ratio for MIC of fluconazole to MIC of compound for Antifungal activity against Candida tropicalis assessed as reduction in fungal cell growth incubated for 48 hrs by broth microdilution method.
Assay [9] has as its system Nakaseomyces glabratus. Nature of the assay: Antifungal activity against Candida glabrata assessed as reduction in fungal cell growth incubated for 48 hrs by broth microdilution method.
The subject of assay [10] is Candida parapsilosis. Nature of the assay: Antifungal activity against Candida parapsilosis ATCC 22019 assessed as reduction in fungal cell growth incubated for 48 hrs by broth microdilution method. The settings on record: Lodderomyces parapsilosis, ATCC 22019, 48 h.
Assay [11] deals with Candida parapsilosis. Put plainly: Potency index, ratio for MIC of fluconazole to MIC of compound for Antifungal activity against Candida parapsilosis ATCC 22019 assessed as reduction in fungal cell growth incubated for 48 hrs by broth microdilution method.
For assay [12], the system named is Pichia kudriavzevii. Put plainly: Antifungal activity against Candida krusei assessed as reduction in fungal cell growth incubated for 48 hrs by broth microdilution method.
For assay [13], the system named is Cryptococcus neoformans. Put plainly: Antifungal activity against Cryptococcus neoformans LA314 assessed as reduction in fungal cell growth incubated for 48 hrs by broth microdilution method. The settings on record: LA314, 48 h.
Assay [14] has as its system Aspergillus flavus. Put plainly: Antifungal activity against Aspergillus flavus NCIM 524 assessed as reduction in fungal cell growth incubated for 3 to 4 days by disk diffusion method. On the technique in general: Agar diffusion results depend on both activity and mobility in agar.
For a further assay, the system named is Talaromyces marneffei. Put plainly: Antifungal activity against Penicillium marneffei assessed as reduction in fungal cell growth incubated for 3 to 4 days by disk diffusion method.
Assay [15] has as its system Trichophyton mentagrophytes. Put plainly: Antifungal activity against Trichophyton mentagrophytes assessed as reduction in fungal cell growth incubated for 3 to 4 days by disk diffusion method.
Assay [16] deals with Aspergillus fumigatus. Nature of the assay: Antifungal activity against Aspergillus fumigatus NCIM 902 assessed as reduction in fungal cell growth incubated for 3 to 4 days by disk diffusion method.
Assay [17] has as its system Candida tropicalis. Nature of the assay: Antifungal activity against Candida tropicalis by broth microdilution method.
Assay [18] concerns Candida albicans. Put plainly: Antifungal activity against Candida albicans.
Assay [19] concerns Nakaseomyces glabratus. Nature of the assay: Antifungal activity against Candida glabrata ATCC 36583 by broth microdilution method.
Assay [20] deals with Aspergillus niger. Put plainly: Antifungal activity against Aspergillus niger.
The next assay relates to Saccharomyces cerevisiae. Nature of the assay: Antifungal activity against Saccharomyces cerevisiae.
Assay [21] has as its system Aspergillus fumigatus. Put plainly: Antifungal activity against Aspergillus fumigatus.
Assay [22] has as its system Candida tropicalis. Put plainly: Antifungal activity against Candida tropicalis assessed as reduction in fungal cell growth incubated for 24 hrs by broth microdilution method.
The test system of assay [23] is Nakaseomyces glabratus. Nature of the assay: Antifungal activity against Candida glabrata assessed as reduction in fungal cell growth incubated for 24 hrs by broth microdilution method.
Assay [24] relates to Candida albicans. Nature of the assay: Antifungal activity against Candida albicans assessed as reduction in fungal cell growth incubated for 24 hrs by broth microdilution method.
In assay [25] the test system is Pichia kudriavzevii. Put plainly: Antifungal activity against Candida krusei assessed as reduction in fungal cell growth incubated for 24 hrs by broth microdilution method.
Assay [26] has as its system Candida albicans. Put plainly: Potency index, ratio for MIC of fluconazole to MIC of compound for antifungal activity against Candida albicans TA.
Assay [27] deals with Candida albicans. Put plainly: In vivo antifungal activity against Candida albicans TA infected in CDF-1 mouse dosed orally assessed as survival of mouse. The settings on record: po.
The test system of assay [28] is Candida albicans. Nature of the assay: Antifungal activity against Candida albicans TA.
In a further assay the test system is Trichoderma harzianum. Nature of the assay: Antifungal activity against Trichoderma harzianum assessed as inhibition zone at 1 ug/ml incubated for 24 to 72 hrs by disk diffusion method.
Assay [29] deals with Candida albicans. Nature of the assay: Antifungal activity against Candida albicans ATCC 885653 assessed as inhibition zone at 100 ug/ml incubated for 48 to 72 hrs by agar-diffusion method.
The subject of assay [30] is Aspergillus flavus. Put plainly: Antifungal activity against Aspergillus flavus assessed as inhibition zone at 1 ug/ml incubated for 24 to 72 hrs by disk diffusion method.
The subject of assay [31] is Candida albicans. Nature of the assay: Antifungal activity against Candida albicans MTCC 227 assessed as reduction in fungal cell growth incubated for 24 and 48 hrs by broth microdilution method.
Assay [32] has as its system Aspergillus niger. Nature of the assay: Antifungal activity against Aspergillus niger assessed as inhibition zone at 1 ug/ml incubated for 24 to 72 hrs by disk diffusion method.
For assay [33], the system named is Aspergillus fumigatus. Nature of the assay: Antifungal activity against Aspergillus fumigatus assessed as inhibition zone at 1 ug/ml incubated for 24 to 72 hrs by disk diffusion method.
Assay [34] deals with Nakaseomyces glabratus. Put plainly: Antifungal activity against Candida glabrata NCIM 3236 assessed as reduction in fungal cell growth incubated for 24 hrs by broth microdilution method. Particulars: NCIM 3236, 24 h.
In assay [35] the test system is Candida albicans. Put plainly: Antifungal activity against Candida albicans MTCC183 assessed as reduction in fungal cell growth incubated for 24 to 48 hrs.
For assay [36], the system named is Candida albicans. Nature of the assay: Antifungal activity against Candida albicans MTCC 227 assessed as reduction in fungal cell growth incubated for 24 hrs by broth microdilution method. The settings on record: MTCC 227, 24 h.
Assay [37] relates to Aspergillus niger. Nature of the assay: Antifungal activity against Aspergillus niger MTCC281 assessed as reduction in fungal cell growth incubated for 24 to 48 hrs.

For orientation: MIC means the smallest concentration in the dilution series that meets the test's criterion for growth inhibition. As for `C[C@H](n1nnnc1CCN1CCN(c2cccc(C(F)(F)F)c2)CC1)[C@](O)(Cn1cncn1)c1ccc(F)cc1F`, the Ratio with Nakaseomyces glabratus [1], in the assay with Aspergillus niger [4], in the assay with Cryptococcus neoformans [6], in the assay on Candida albicans [7], in the assay with Candida tropicalis [8] and with Candida parapsilosis [11] was 16 throughout. The minimum inhibitory concentration (MIC) in the assay with Candida albicans [2] is 0.12 to 16 µg/mL (≈ 0.208 to 27.7 µM); in the assay with Candida tropicalis [3], 0.12 to 1 µg/mL (≈ 0.208 to 1.73 µM); in the assay on Aspergillus niger [5], 0.12 to 1 µg/mL (≈ 0.208 to 1.73 µM); with Nakaseomyces glabratus [9], 0.12 to 1 µg/mL (≈ 0.208 to 1.73 µM); with Candida parapsilosis [10] it was 0.12 to 1 µg/mL (≈ 0.208 to 1.73 µM); in the assay on Pichia kudriavzevii [12], 0.12 to 1 µg/mL (≈ 0.208 to 1.73 µM). Moreover, in the assay on Cryptococcus neoformans [13], the MIC was in the range of 0.12 to 1 µg/mL (≈ 0.208 to 1.73 µM).

As for `c1ccc(Cn2nnnc2SCCCSc2nnnn2-c2ccccc2)cc1`, the MIC (in the assay on Aspergillus flavus [14]; with Talaromyces marneffei; in assay [15]; with Aspergillus fumigatus [16]) was 6.25 µg/mL (≈ 15.2 µM) each time.

On to `Cn1nnnc1SCC(=O)Nc1ccc(-c2nc3cc(Cl)c(Cl)cc3n2C)cc1`, for which the minimum inhibitory concentration (MIC) with Candida tropicalis [17], against Candida albicans [18] and against Nakaseomyces glabratus [19] was 25 to 50 µg/mL (≈ 55.8 to 112 µM) in each case.

For the compound `O=C(/C=C/c1ccc([N+](=O)[O-])cc1)c1ccc(-n2nnnc2-c2nc(-c3nnnn3-c3ccc(C(=O)/C=C/c4ccc([N+](=O)[O-])cc4)cc3)nc(-c3nnnn3-c3ccc(C(=O)/C=C/c4ccc([N+](=O)[O-])cc4)cc3)n2)cc1`, the minimum inhibitory concentration (MIC) in the assay with Aspergillus niger [20], against Saccharomyces cerevisiae, against Aspergillus fumigatus [21] and with Candida albicans [18] was less than 2.5 µg/mL throughout.

In the case of `Fc1cc2nc(SCc3ccc(-c4ccccc4-c4nnnn4C(c4ccccc4)(c4ccccc4)c4ccccc4)cc3)[nH]c2cc1-n1ccnc1`, the MIC with Candida tropicalis [22], in the assay on Nakaseomyces glabratus [23], in the assay with Candida albicans [24] and with Pichia kudriavzevii [25] was 8 to 16 µg/mL (≈ 11.3 to 22.5 µM) throughout.

As usually defined, the ED50 is the dose at which the effect has come halfway, by size or by number of responders. Take `C[C@@H](n1cnnn1)[C@](O)(Cn1cncn1)c1ccc(F)cc1F`: the Ratio with Candida albicans [26] is recorded as 8. Further, the ED50 with Candida albicans [27] is 0.18 mg/kg. In addition, inhibition of growth in the assay on Candida albicans [28] (MIC) required 12.5 µg/mL (≈ 38.9 µM).

For `Fc1cc2nc(SCc3ccc(-c4ccccc4-c4nnnn4C(c4ccccc4)(c4ccccc4)c4ccccc4)cc3)[nH]c2cc1Oc1ccc(Cl)cc1`, the MIC in the assay with Candida tropicalis [22], with Nakaseomyces glabratus [23], with Candida albicans [24] and in the assay on Pichia kudriavzevii [25] was 16 µg/mL (≈ 20.7 µM) each time.

Regarding `Cn1c(-c2ccc(NC(=O)CSc3nnnn3-c3ccccc3)cc2)nc2cc(Cl)c(Cl)cc21`, the MIC in the assay with Candida tropicalis [17], against Candida albicans [18] and in the assay on Nakaseomyces glabratus [19] was 25 to 50 µg/mL (≈ 49 to 98 µM) each time.

Consider NYSTATIN, for which the inhibition zone (IZ) is 2.4 to 2.8 mm in the assay on Trichoderma harzianum; 21 mm in the assay with Candida albicans [29]; 2.4 to 2.8 mm in the assay on Aspergillus flavus [30]; 2.4 to 2.8 mm with Aspergillus niger [32]; 2.4 to 2.8 mm with Aspergillus fumigatus [33]. Also, in the assay with Candida albicans [31], the MIC came out at 100 µg/mL.

Take `N#Cc1c(-c2ccco2)nc2sc3c4nnnn4cnc3n2c1=O`: the zone of inhibition at 1 µg/mL in the assay on Trichoderma harzianum (read-out: IZ), in the assay on Aspergillus flavus [30] (read-out: IZ), with Aspergillus niger [32] (read-out: IZ) and in the assay on Aspergillus fumigatus [33] (read-out: IZ) was 1.8 to 2.5 mm each time.

As for `Clc1ccc(COC(Cn2ccnc2)c2ccc(Cl)cc2Cl)c(Cl)c1` (configuration not stated) [MICONAZOLE], the minimal inhibitory concentration (MIC) in the assay with Nakaseomyces glabratus [34] came to 400 µg/mL (≈ 961 µM); with Candida albicans [35], 25 µg/mL (≈ 60.1 µM); in the assay on Candida albicans [36] it was 12.5 µg/mL (≈ 30 µM); in the assay on Aspergillus niger [37] it was 12.5 µg/mL (≈ 30 µM).
